Data taken from patent US9192638B2, “Preparation comprising amino acids and plants and its activity in the alcohol detoxification” (Modutech S.A., priority 2009, dated 2015).

System: Mice
Assay: Acute cerebral ischemia hypoxia survival time of mice, different formulations (Example 1)
Format: in vivo
Conditions: 800 mg/kg per day oral, 7 days, sacrificed 1 h after last dosing
Procedure: The acute cerebral ischemia hypoxia survival time of the mice through different formulations is provided.
Dosage: 800 mg/kg per day per group. The test sample is prepared by redistilled water and drenched into the stomach through the mouth for seven days continuously.
Testing Method: The mice are respectively sacrificed one hour after the last stomach drenching, and the time from the sacrifice of the mice to the time when they stop gasping through mouths is recorded with a second counter.

## NC(=O)NCCC[C@H](N)C(=O)O [Sample 1, Citrulline]
  Gasp Stopping Time: 12.6 s
